Source: ChEMBL document CHEMBL1909046, “DrugMatrix in vitro pharmacology data”
Where a SMILES comes first, the peptide text is derived from it. Bridges are numbered along the chain shown (N, C = ends). [ ]: non-standard residue; d: D form. The star is where a group is joined. Ileψ(thiazoline)Cys = CC[C@H](C)[C@H](N)C1=N[C@H](C(=O)*)CS1; dOrn = NCCC[C@@H](N)C(=O)O

What was measured:
[1] = biological target: Protein phosphatase 3 catalytic subunit alpha (Homo sapiens, UniProt Q08209); parameters: species or system Escherichia coli;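 note: inhibition of calcineurin (PP2B) enzyme activity, measured with DiFMUP as the substrate; in other assays of this panel Not Active means under 50% inhibition at 10 µM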
[2] = DRUGMATRIX: Potassium Channel [KATP] radioligand binding (ligand: [3H] Glyburide); format: cell membranes, Membrane; conditions: hit-t15; Not Active = under 50% inhibition at 10 µM
[3] = biological target: Estrogen receptor beta (Homo sapiens, UniProt Q92731); conditions: sf9; note: in other assays of this panel Not Active means under 50% inhibition at 10 µM
[4] = biological target: T1, Caspase-1 (Homo sapiens, UniProt P29466); parameters: species or system Escherichia coli;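 note: Caspase-1 enzyme inhibition assay with a peptide substrate; in other assays of this panel Not Active means under 50% inhibition at 10 µM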
T1 sequence (P29466 whole entry): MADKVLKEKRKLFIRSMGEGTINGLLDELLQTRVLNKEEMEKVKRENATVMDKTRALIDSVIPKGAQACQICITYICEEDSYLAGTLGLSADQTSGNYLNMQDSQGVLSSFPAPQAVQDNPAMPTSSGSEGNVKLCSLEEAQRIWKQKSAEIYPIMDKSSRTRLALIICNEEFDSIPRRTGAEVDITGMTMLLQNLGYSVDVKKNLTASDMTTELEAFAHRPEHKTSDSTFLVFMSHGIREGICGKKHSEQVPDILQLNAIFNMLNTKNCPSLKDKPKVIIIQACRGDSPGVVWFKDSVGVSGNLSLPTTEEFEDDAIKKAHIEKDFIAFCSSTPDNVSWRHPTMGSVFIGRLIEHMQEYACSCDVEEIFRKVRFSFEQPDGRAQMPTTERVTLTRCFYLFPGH

[5] = DRUGMATRIX: Phosphodiesterase PDE3 enzyme inhibition (substrate: [3H]cAMP + cAMP); format: tissue-based, Homo sapiens; conditions: platelet; Not Active = under 50% inhibition at 10 µM
[6] = biological target: T2, C-X-C chemokine receptor type 1 (Homo sapiens, UniProt P25024); note: in other assays of this panel Not Active means under 50% inhibition at 10 µM
T2 sequence (P25024 whole entry): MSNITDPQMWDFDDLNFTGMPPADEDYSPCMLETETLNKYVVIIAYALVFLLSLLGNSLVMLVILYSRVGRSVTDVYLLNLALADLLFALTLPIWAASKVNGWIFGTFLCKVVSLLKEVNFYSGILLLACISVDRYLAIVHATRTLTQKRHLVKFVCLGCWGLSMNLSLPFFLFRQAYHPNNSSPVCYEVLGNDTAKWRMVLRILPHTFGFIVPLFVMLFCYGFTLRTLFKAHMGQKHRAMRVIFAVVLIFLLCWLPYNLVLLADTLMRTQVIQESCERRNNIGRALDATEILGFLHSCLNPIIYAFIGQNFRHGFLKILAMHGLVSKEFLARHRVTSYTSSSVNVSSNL

[7] = biological target: T3, Alpha-2C adrenergic receptor (Homo sapiens, UniProt P18825); assay: DRUGMATRIX: Adrenergic Alpha-2C radioligand binding (ligand: [3H] MK-912); format: cell membranes, Sf9, Membrane; conditions: sf9
T3 sequence (P18825 whole entry): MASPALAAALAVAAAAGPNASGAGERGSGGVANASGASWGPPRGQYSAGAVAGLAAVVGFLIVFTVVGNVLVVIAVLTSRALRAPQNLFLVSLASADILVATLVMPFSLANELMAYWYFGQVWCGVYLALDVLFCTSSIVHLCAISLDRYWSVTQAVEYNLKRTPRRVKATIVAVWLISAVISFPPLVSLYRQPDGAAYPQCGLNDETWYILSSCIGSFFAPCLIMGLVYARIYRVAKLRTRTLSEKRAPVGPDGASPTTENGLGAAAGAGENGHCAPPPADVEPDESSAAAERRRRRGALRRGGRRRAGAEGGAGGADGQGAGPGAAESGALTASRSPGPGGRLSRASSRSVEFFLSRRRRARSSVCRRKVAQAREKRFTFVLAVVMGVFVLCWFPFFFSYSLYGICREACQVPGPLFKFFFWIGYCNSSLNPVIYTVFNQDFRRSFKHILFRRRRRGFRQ

[8] = biological target: Adenosine receptor A2a (Homo sapiens, UniProt P29274); assay: DRUGMATRIX: Adenosine A2A radioligand binding (ligand: […]); format: cell membranes, HEK293, Membrane; conditions: hek293; Not Active = under 50% inhibition at 10 µM
[9] = biological target: 5-hydroxytryptamine receptor 4 (Cavia porcellus, UniProt O70528); format: cell membranes, Dunkin-Hartley, Striatum, Membrane; note: in other assays of this panel Not Active means under 50% inhibition at 10 µM
[10] = biological target: Nitric oxide synthase 1 (Rattus norvegicus, UniProt P29476); format: tissue-based, Cerebellum; note: in other assays of this panel Not Active means under 50% inhibition at 10 µM
[11] = DRUGMATRIX: Atrial Natriuretic Factor (ANF) radioligand binding (ligand: [125I] ANF (rat)); format: cell membranes, Cavia porcellus, Dunkin-Hartley, Adrenal gland, Membrane; conditions: Not Active = under 50% inhibition at 10 µM
[12] = biological target: T4, Cysteinyl leukotriene receptor 1 (Homo sapiens, UniProt Q9Y271); format: cell membranes, CHO-K1, Membrane; conditions: cho-k1; note: in other assays of this panel Not Active means under 50% inhibition at 10 µM
T4 sequence (Q9Y271 whole entry): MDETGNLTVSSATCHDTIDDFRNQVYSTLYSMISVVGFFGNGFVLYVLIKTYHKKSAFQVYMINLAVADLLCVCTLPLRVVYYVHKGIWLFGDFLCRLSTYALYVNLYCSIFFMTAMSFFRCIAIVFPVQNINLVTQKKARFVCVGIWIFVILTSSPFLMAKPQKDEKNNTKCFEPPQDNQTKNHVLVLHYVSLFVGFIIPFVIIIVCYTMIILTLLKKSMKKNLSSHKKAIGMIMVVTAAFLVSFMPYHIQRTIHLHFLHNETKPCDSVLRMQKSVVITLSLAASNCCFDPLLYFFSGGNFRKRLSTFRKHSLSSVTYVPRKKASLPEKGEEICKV

[13] = DRUGMATRIX: Leukotriene, BLT (LTB4) radioligand binding (ligand: [3H]LTB4); format: cell membranes, Membrane; conditions: u-937; Not Active = under 50% inhibition at 10 µM
[14] = biological target: Tyrosine-protein kinase Lck (Homo sapiens, UniProt P06239); assay: DRUGMATRIX: Protein Tyrosine Kinase, LCK enzyme inhibition (substrate: Poly(Glu:Tyr)); format: cell-based, Insect cells; conditions: insect cells; Not Active = under 50% inhibition at 10 µM
Tyrosine-protein kinase Lck, sequence (P06239 whole entry): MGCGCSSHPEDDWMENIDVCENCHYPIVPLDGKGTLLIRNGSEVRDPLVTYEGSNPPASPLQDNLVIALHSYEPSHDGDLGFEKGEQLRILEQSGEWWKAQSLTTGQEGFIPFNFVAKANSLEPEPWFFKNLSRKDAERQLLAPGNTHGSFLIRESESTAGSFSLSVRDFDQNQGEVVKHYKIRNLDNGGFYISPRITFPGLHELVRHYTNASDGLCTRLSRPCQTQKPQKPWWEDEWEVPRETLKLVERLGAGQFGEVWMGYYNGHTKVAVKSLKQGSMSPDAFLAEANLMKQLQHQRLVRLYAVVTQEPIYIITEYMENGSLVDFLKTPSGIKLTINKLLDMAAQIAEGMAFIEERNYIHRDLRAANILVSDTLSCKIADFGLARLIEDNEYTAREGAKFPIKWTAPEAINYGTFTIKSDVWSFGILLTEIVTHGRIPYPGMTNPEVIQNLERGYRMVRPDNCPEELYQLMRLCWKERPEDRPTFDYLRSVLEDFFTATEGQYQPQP

Adenosine receptor A2a, sequence (P29274 whole entry): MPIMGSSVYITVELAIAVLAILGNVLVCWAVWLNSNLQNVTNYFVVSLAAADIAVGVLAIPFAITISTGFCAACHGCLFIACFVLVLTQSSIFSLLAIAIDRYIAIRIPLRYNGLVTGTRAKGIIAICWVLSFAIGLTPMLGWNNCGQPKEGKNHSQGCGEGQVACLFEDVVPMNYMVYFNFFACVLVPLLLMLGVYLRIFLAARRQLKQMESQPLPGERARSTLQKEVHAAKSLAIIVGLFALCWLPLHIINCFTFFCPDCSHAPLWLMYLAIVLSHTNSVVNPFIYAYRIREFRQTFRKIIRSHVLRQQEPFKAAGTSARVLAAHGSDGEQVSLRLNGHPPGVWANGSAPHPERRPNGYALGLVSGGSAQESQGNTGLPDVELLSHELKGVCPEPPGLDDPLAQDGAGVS
5-hydroxytryptamine receptor 4, sequence (O70528 whole entry): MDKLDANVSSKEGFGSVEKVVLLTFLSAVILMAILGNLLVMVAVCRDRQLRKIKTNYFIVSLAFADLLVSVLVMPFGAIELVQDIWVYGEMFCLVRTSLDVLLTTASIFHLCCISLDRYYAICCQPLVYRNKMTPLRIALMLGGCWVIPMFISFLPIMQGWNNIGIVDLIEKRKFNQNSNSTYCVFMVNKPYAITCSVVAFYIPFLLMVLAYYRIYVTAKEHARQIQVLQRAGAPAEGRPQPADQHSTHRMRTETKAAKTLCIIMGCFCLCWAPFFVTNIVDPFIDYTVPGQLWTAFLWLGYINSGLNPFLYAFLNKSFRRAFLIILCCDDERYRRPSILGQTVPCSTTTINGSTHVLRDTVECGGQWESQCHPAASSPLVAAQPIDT
Nitric oxide synthase 1, sequence (P29476 whole entry): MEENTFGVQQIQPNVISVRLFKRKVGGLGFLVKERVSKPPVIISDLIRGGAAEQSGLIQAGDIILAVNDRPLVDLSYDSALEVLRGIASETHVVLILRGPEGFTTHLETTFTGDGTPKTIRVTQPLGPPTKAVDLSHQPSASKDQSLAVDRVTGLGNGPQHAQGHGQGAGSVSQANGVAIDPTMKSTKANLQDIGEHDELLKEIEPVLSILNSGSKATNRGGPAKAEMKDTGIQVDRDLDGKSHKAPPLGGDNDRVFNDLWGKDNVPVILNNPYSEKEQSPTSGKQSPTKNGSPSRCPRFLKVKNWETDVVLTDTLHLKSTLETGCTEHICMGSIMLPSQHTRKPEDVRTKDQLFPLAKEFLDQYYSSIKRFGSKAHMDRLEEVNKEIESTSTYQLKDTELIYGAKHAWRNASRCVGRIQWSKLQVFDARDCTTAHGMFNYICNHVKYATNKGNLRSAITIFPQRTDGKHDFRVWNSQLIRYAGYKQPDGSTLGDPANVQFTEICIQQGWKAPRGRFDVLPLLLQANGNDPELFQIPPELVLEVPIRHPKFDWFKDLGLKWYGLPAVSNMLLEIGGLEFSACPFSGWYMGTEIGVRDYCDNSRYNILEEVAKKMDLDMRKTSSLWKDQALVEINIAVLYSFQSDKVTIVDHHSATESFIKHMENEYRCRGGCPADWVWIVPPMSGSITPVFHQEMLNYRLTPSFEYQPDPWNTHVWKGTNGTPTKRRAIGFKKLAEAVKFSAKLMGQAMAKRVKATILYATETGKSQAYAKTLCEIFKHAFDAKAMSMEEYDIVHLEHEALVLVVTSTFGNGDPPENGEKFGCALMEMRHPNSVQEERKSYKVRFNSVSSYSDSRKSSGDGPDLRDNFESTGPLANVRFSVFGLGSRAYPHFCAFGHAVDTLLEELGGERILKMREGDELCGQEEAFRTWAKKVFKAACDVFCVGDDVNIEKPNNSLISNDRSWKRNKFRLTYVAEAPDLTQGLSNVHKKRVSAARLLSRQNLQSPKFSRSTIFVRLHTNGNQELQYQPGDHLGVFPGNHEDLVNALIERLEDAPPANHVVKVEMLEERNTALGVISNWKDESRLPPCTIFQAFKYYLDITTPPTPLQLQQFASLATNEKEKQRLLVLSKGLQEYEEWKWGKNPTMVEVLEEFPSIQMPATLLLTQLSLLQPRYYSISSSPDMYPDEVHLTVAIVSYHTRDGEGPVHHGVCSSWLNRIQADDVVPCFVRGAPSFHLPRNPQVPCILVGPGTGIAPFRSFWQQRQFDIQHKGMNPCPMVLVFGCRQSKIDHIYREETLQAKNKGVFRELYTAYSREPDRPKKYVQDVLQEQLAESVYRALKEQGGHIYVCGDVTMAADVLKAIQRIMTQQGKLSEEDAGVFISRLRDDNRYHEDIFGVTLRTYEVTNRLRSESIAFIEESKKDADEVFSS
Estrogen receptor beta, sequence (Q92731 whole entry): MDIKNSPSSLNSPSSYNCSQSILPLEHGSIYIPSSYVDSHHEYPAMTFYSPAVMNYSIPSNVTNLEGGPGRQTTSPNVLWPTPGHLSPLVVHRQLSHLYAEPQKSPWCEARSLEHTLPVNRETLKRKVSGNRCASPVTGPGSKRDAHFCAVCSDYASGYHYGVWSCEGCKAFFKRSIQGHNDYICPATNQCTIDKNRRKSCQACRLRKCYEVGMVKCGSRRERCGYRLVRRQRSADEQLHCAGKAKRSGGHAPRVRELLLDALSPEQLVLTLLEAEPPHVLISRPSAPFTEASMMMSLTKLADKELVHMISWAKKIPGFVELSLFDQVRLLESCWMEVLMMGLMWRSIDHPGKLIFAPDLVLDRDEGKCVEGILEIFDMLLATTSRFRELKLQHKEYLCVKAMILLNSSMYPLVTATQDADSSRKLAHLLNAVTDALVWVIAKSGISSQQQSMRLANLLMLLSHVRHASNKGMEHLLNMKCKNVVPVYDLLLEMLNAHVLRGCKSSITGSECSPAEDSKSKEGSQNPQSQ

CC[C@H](C)[C@H](N)C1=N[C@H](C(=O)N[C@@H](CC(C)C)C(=O)N[C@H](CCC(=O)O)C(=O)N[C@H](C(=O)N[C@H]2CCCCNC(=O)[C@H](CC(N)=O)NC(=O)[C@@H](CC(=O)O)NC(=O)[C@H](Cc3cnc[nH]3)NC(=O)[C@@H](Cc3ccccc3)NC(=O)[C@H]([C@@H](C)CC)NC(=O)[C@@H](CCCN)NC2=O)[C@@H](C)CC)CS1 [BACITRACIN] ({Ileψ(thiazoline)Cys}-L[dE]IK[dOrn]I[dF]H[dD]N; lactam 4-C)
Not Active: IC50 [1] | IC50 [2] | Ki [2] | IC50 [3] | IC50 [4] | IC50 [5] | Ki [5] | IC50 [6] | IC50 [7] | IC50 [8] | IC50 [9] | IC50 [10] | IC50 [11] | Ki [11] | IC50 [12] | IC50 [13] | Ki [13]

CNCCC=C1c2ccccc2CCc2ccccc21 [NORTRIPTYLINE]
Not Active: IC50 [1] | IC50 [2] | Ki [2] | IC50 [3] | IC50 [4] | IC50 [5] | Ki [5] | IC50 [6] | IC50 [8] | IC50 [9] | IC50 [10] | IC50 [11] | Ki [11] | IC50 [14] | IC50 [12] | IC50 [13] | Ki [13]

CC1COc2c(N3CCN(C)CC3)c(F)cc3c(=O)c(C(=O)O)cn1c23 (stereo not drawn) [OFLOXACIN]
Not Active: IC50 [1] | IC50 [2] | Ki [2] | IC50 [4] | IC50 [5] | Ki [5] | IC50 [6] | IC50 [7] | IC50 [8] | IC50 [9] | IC50 [10] | IC50 [11] | Ki [11] | IC50 [14] | IC50 [12] | IC50 [13] | Ki [13]

Fc1ccc([C@@H]2CCNC[C@H]2COc2ccc3c(c2)OCO3)cc1 [PAROXETINE]
Not Active: IC50 [1] | IC50 [2] | Ki [2] | IC50 [4] | IC50 [5] | Ki [5] | IC50 [6] | IC50 [7] | IC50 [8] | IC50 [9] | IC50 [10] | IC50 [11] | Ki [11] | IC50 [14] | IC50 [12] | IC50 [13] | Ki [13]

O=C1NC(=O)C(c2ccccc2)(c2ccccc2)N1 [PHENYTOIN]
Not Active: IC50 [1] | IC50 [2] | Ki [2] | IC50 [4] | IC50 [5] | Ki [5] | IC50 [6] | IC50 [7] | IC50 [8] | IC50 [9] | IC50 [10] | IC50 [11] | Ki [11] | IC50 [14] | IC50 [12] | IC50 [13] | Ki [13]

CNC(=O)Oc1ccc2c(c1)[C@]1(C)CCN(C)[C@@H]1N2C [PHYSOSTIGMINE]
Not Active: IC50 [1] | IC50 [2] | Ki [2] | IC50 [4] | IC50 [5] | Ki [5] | IC50 [6] | IC50 [7] | IC50 [8] | IC50 [9] | IC50 [10] | IC50 [11] | Ki [11] | IC50 [14] | IC50 [12] | IC50 [13] | Ki [13]

CN1C(C(=O)Nc2ccccn2)=C(O)c2ccccc2S1(=O)=O [PIROXICAM]
Not Active: IC50 [1] | IC50 [2] | Ki [2] | IC50 [4] | IC50 [5] | Ki [5] | IC50 [6] | IC50 [7] | IC50 [8] | IC50 [9] | IC50 [10] | IC50 [11] | Ki [11] | IC50 [14] | IC50 [12] | IC50 [13] | Ki [13]

CCCc1cc(=O)[nH]c(=S)[nH]1 [PROPYLTHIOURACIL]
Not Active: IC50 [1] | IC50 [2] | Ki [2] | IC50 [4] | IC50 [5] | Ki [5] | IC50 [6] | IC50 [7] | IC50 [8] | IC50 [9] | IC50 [10] | IC50 [11] | Ki [11] | IC50 [14] | IC50 [12] | IC50 [13] | Ki [13]

COc1ccc(CN(CCN(C)C)c2ccccn2)cc1 [PYRILAMINE]
Not Active: IC50 [1] | IC50 [2] | Ki [2] | IC50 [4] | IC50 [5] | Ki [5] | IC50 [6] | IC50 [7] | IC50 [8] | IC50 [9] | IC50 [10] | IC50 [11] | Ki [11] | IC50 [14] | IC50 [12] | IC50 [13] | Ki [13]
